Results as given in PMC5299588, “Lumican Peptides: Rational Design Targeting ALK5/TGFBRI” (Scientific Reports, 2017).
“Also recorded” adds a separate entry of the source. No end group written: not given here.

Tests used:
corneal epithelium [1] = test: In vivo corneal epithelium debridement wound healing in Lum−/− mice, peptide eye drops; set-up: species or system C57BL/6 genetic background; conditions: drops 0.3 μM every 15 min for 5 h
Source text: Lum null (Lum^−/−) mice were also used to examine the efficacy of LumC peptides in promoting epithelium sheet migration following debridement wound (Supplemental Fig. S2).
(§1) Use of experimental mice is in compliance to the ARVO statement for the use of animals in vision research and all procedures are approved by IACUC of the University of Cincinnati. Lum^−/− mice in C57BL/6 genetic background aged 7–8 weeks were used in this study. Mice were anesthetized with intraperitoneal injections of a combination of ketamine (10 mg/kg; Henry Shein) and xylazine (1 mg/kg; Henry Shein) prior to the surgery, and a drop of proparacaine hydrochloride 0.5% (Alcon) was applied to the cornea to deliver local anesthesia before injury. Briefly, a 2 mm diameter trephine was used to demarcate the central epithelial region of the eye and the epithelium within the demarcated region was mechanically removed using an Algerbrush II (Alger Equipment Co., Inc., Lago Vista, TX) while viewing the cornea under a stereomicroscope (Stemi SC II stereomicroscope with epi-fluorescence attachment, Carl ZEISS). Eight mice per group were treated and the experiments were repeated at least two times. Each mouse was topically treated with one drop peptide solution (10 μl) at concentration of 0.3 μM or 10 μL PBS every 15 min for 5 h after wounding. After 5 h, mice were sacrificed. The eyes were excised and fixed in 4% paraformaldehyde in PB (0.1 M phosphate buffer, pH 7.4. whole mount corneas were stained with phalloidin and DAPI and image with a Zeiss Apo Tome microscope (Observer Z1). The migration of epithelium sheet was determined as previously described. In brief, migrated corneal epithelium was measured on whole mount samples in 5 different locations equally distributed around the entire circumference of the wound. The number of animals in each experimental group is on the bars in the bar chart. The statistical analyses as well as symbols are shown in the graph legend. PBS treated Lum^−/− mice were used as negative controls, in which the epithelium sheet migrated less than 50 μm in 5 h (Supplemental Fig. 2 for representative plots). Four Z-staged images were collected from each corneas, the epithelium migration was determined by the distance of migration of epithelium front to the initial injured line as previously described.

ALK5 [2] = target: T1, ALK5 (Homo sapiens, UniProt P36897); test: Binding affinity (Kd) of designed peptide; conditions: method not described; highest affinity in all designed peptides
T1 sequence (P36897 34-503): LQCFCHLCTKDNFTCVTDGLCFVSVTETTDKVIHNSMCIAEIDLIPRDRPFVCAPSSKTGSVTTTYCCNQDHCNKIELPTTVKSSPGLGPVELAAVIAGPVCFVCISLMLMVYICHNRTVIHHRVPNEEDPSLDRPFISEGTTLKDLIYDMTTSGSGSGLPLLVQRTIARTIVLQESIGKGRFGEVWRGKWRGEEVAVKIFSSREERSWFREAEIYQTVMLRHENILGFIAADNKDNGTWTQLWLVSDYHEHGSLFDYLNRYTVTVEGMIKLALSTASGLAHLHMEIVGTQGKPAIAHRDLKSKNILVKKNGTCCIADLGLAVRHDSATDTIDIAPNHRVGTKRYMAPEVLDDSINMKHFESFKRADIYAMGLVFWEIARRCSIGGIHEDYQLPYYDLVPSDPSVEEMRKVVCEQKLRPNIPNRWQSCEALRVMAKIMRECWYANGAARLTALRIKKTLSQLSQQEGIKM

corneal epithelium [3] = test: In vivo corneal epithelium debridement wound healing in mice, peptide eye drops; set-up: species or system mouse; conditions: for promotion of corneal epithelium wound healing: debridement wound, eye drops 0.3 μM every 15 min for 5 h
Protocol: To confirm peptide action promoting corneal epithelium wound healing in vivo, mice were subjected to a 2 mm with corneal epithelium debridement. The injured corneas were treated with 10 μl eye drops lumican peptides (0.3 μM) every 15 min for 5 h as previously described. Migration distance was measured between the original wound edge and the wound front. In Lumikine (LumC13C-A) treated corneas, the epithelium sheet moved ∼144 μm. […] The average epithelium migration (μm) and standard deviation were calculated from n corneas of each of two separate experiments.
as §1

ALK5 [4] = target: T1, ALK5; conditions: cited from earlier work
Source text: Proteoglycans (PGs) are complex polymers composed of a core protein to which one or more glycosaminoglycan (GAGs) chains are covalently attached. They play a central role in physiology and disease[1][2][3][4][5][6]: modulating cell metabolism, mediating cell-cell trafficking, providing support for connective tissue and regulating of a wide range of effectors at both systemic and cellular levels. Small leucine rich proteoglycans (SLRPs) are a family of proteoglycans with small core proteins (~40 Kd) that contain hyper variable glycosylation sites with multivalent binding abilities. […] In this present study, we have accessed the binding of rationally designed LumC peptides with a related scoring approach, MM-GBSA, after docking and molecular dynamics simulations. In this method, docking scores are used to define initial binding sites, and more expensive and rigorous methods such as molecular dynamics (MD) simulation and binding free ...

ALK5 [5] = target: T1, ALK5; test: kcat/Km of peptides and loss of binding outside EVTLN region; conditions: method not described
[6] = Mass spectrometry of LumC13 in solution (dimerization); type: physicochemical; conditions: peptide in solution
prostate cancer cell = conditions: cited from earlier work
Source text: This could be of particular interest in conditions where patients display delayed wound healing, such as diabetes, which culminates in an increased risk of inflammation and scarring. The significance of synthesizing lumican peptides that mediate TGFbRI signaling also goes beyond promoting skin and corneal wound healing.

Substance: IKHLRLDGEVTLN [Hybrid 1/3, hybrid peptide …]
- promotion of epithelium wound healing / migration (corneal epithelium [1]): little effect promoting wound healing

Substance: LPPDMYECLRVAN [LumC18ΔC5, Lumican peptide …]
- promotion of epithelium wound healing / migration (corneal epithelium [1]): little effect promoting wound healing

Substance: LPPDMYECEVTLN [Hybrid 2/3]
- Kd (ALK5 [2]): 28.7 ± 3.9 µM

Substance: YEALRVANEVTLN [LumC13C-A, Lumican peptide … (Lumikine)]
- epithelium migration distance (corneal epithelium [3]; 2 mm debridement, 10 μl eye drops 0.3 μM every 15 min for 5 h, between original wound edge and wound front): ~144 μm
- promotion of corneal epithelium wound healing (corneal epithelium [3]): increased ability to promote wound healing
- promotion of epithelium wound healing / migration (corneal epithelium [1]): promoted wound healing of corneal epithelium debridement of Lum^−/− mice to the same extent as injured wild type mice; also recorded: higher pharmaceutical activity of LumC13C-A compared to LumC13; also recorded: significantly promoted epithelium wound healing
- binding to ALK5 to promote wound healing (ALK5 [4]; synthetic LumC13-terminal peptide YEALRVANEVTLN): binding ALK5 to promote wound healing

Substance: YECLRVANEVTLN [LumC13, peptide designed from the 13 C-terminal amino acids of lumican, …]
- kcat/Km (ALK5 [5]): 1e+06 ± 4000 M⁻¹ s⁻¹
- promotion of corneal epithelium wound healing (corneal epithelium [3]): increased ability to promote wound healing
- promotion of epithelial cell migration (words, conclusion) (corneal epithelium [3]; in vitro and in vivo wound healing assays): essential to promote epithelial cell migration to the same extent as lumican
- promotion of epithelium wound healing / migration (corneal epithelium [1]): moderately increased activity in promoting wound healing when compared to LumC13C-A
- dimerization in solution via disulfide bond formation [6]: dimerization of the LumC13 peptides in solution via disulfide bond formation of cysteine residue, which reduces the activity of dimerized LumC13

Substance: Lumican: class II SLRP member, one of the major proteoglycans in the corneal stroma
- wound healing via C-terminal domain / TGFβRI interaction (ALK5 [4]): promotes wound healing via its C-terminal domain due to its interaction with TGFβRI (ALK5)
- prostate cancer cell migration (prostate cancer cell): inhibits prostate cancer cell migration

Substance: IKHLRLDGNRISE [LumC33ΔC20, Lumican peptide …; control peptide]
- kcat/Km (ALK5 [5]): < 100 M⁻¹ s⁻¹
- promotion of corneal epithelium wound healing (corneal epithelium [3]): did not promote epithelium wound healing
- promotion of epithelium wound healing / migration (corneal epithelium [1]): little effect promoting wound healing
